The assay in a line: Dual-Glo Luciferase Assay: The Dual-Glo Luciferase Reagent was prepared by transferring the contents of one bottle of Dual-Glo Luciferase Buffer to one bottle of Dual-Glo Luciferase Substrate to create the Dual-Glo Luciferase Reagent. Mixing was performed by inversion until the substrate was thoroughly dissolved. After mixing, the reagent was aliquoted into 15 ml tubes. In the afternoon (24 hrs post compound treatment), the DMEM+medium in the 384 well plates were aspirated by Microplate Washer.Measuring firefly luciferase activity: 20 ul Dual-Glo Luciferase Reagent was added to the 384-well plates. The plates were protected from light to prevent interference with the assay. The plates were shaken for 1 min followed centrifuging plates at 1000 rpm for 30 seconds. After waiting at least 10 minutes, the firefly luminescence was measured by Envision.Measuring renilla luciferase activity: 20 ul Stop-Glo Reagent was added to the 384-well plates. The plates were shaken for 1 min and then centrifuged at 1000 rpm for 30 seconds. After waiting at least 10 minutes, the renilla luminescence was measured by Envision.Compound IC50 and maximum inhibition on the firefly luciferase and renilla luciferase activities were reported separately.

Molecules are shown by their SMILES.

Usually IC50 stands for the concentration that gives 50% inhibition. Higher therefore signals weaker potency. In the case of `C[C@@H](NC(=O)c1ccc2c(Oc3ccc(C(F)(F)F)cc3)cccc2c1)C1CNC1`, the IC50 was below 100 nM.

In the case of `O=C(N[C@@H](CO)C1CNC1)c1ccc2c(Oc3ccc(C(F)(F)F)cc3)cccc2c1`, the IC50 result is “in the range around 2000 nM”.

As to `O=C(N[C@@H](CO)c1ccccn1)c1ccc2c(Oc3ccc(C(F)(F)F)cc3)cccc2c1`, the IC50 entry was “in the range around 550 nM”.

As to `C[C@@H](NC(=O)c1ccc2c(Oc3ccc(C(F)(F)F)cc3)cccc2c1)C1CN(C2CC2)C1`, the IC50 was below 100 nM.

As to `O=C(NC(CCO)c1ccccn1)c1ccc2c(Oc3ccc(C(F)(F)F)cc3)cccc2c1` (stereo not given), the IC50 is below 100 nM.

`O=C(NC(CCO)CCO)c1ccc2c(Oc3ccc(C(F)(F)F)cc3)cccc2c1`: the IC50 was below 100 nM.

Consider `N#CNC(=O)c1ccc2c(Oc3ccc(C(F)(F)F)cc3)cccc2c1`, for which the IC50 entry is “in the range around 550 nM”.

`C[C@H](NC(=O)c1ccc2c(Oc3ccc(C(F)(F)F)cc3)cccc2c1)c1ccccc1Cl`: the IC50 is below 100 nM.

For `CC(=O)N1CC([C@@H](C)NC(=O)c2ccc3c(Oc4ccc(C(F)(F)F)cc4)cccc3c2)C1`, the IC50 entry is “in the range around 550 nM”.

`O=C(N[C@@H](CCO)c1ccccn1)c1ccc2c(Oc3ccc(C(F)(F)F)cc3)cccc2c1` displayed an IC50 below 100 nM.

The compound `COc1cc(Oc2ccc(C(F)(F)F)cc2)c2ncc(C(=O)N[C@H](C)CO)cc2c1` had an IC50 below 100 nM.

As for `C[C@@H](CCN)NC(=O)c1ccc2c(Oc3ccc(C(F)(F)F)cc3)cccc2c1`, the IC50 was below 100 nM.

Compound `C[C@H](NC(=O)c1cnc2c(Oc3ccc(C(F)(F)F)cc3)cccc2c1)c1cccc2nc[nH]c12` returned an IC50 below 100 nM.

As to `C[C@@H](NC(=O)c1cnc2c(Oc3ccc(C(F)(F)F)cc3)cccc2c1)c1cccc2nc[nH]c12`, the IC50 entry is “in the range around 550 nM”.

As for `CC(C)NC(=O)c1ccc2c(Oc3ccc(C(F)(F)F)cc3F)cccc2c1`, the IC50 is below 100 nM.

The compound `C[C@@H](NC(=O)c1ccc2c(Oc3ccc(C(F)(F)F)cc3)cccc2c1)c1cn(C)cn1` came in with an IC50 below 100 nM.

For the compound `CC#C[C@@H](C)NC(=O)c1ccc2c(Oc3ccc(C(F)(F)F)cc3)cccc2c1`, the IC50 was below 100 nM.

In turn, `C[C@@H](NC(=O)c1ccc2c(Oc3ccc(C(F)(F)F)cc3)cccc2c1)C1(O)CNC1` gave an IC50 below 100 nM.

Compound `C[C@@H](CN)NC(=O)c1ccc2c(Oc3ccc(C(F)(F)F)cc3)cccc2c1` returned an IC50 below 100 nM.

The compound `C[C@@H](CCO)NC(=O)c1ccc2c(Oc3ccc(C(F)(F)F)cc3)cccc2c1` displayed an IC50 below 100 nM.

On to `O=C(N[C@H](CO)c1ccccn1)c1ccc2c(Oc3ccc(C(F)(F)F)cc3)cccc2c1`, for which the IC50 is below 100 nM.

With `O=C(N[C@H](CCO)c1ccccn1)c1ccc2c(Oc3ccc(C(F)(F)F)cc3)cccc2c1`, the IC50 result was “in the range around 550 nM”.

In the case of `C[C@@H](NC(=O)c1ccc2c(Oc3ccc(C(F)(F)F)cc3)cccc2c1)c1cccc2ccc(=O)[nH]c12`, the IC50 is below 100 nM.

As for `C[C@H](NC(=O)c1ccc2c(Oc3ccc(C(F)(F)F)cc3)cccc2c1)C1CN(C2CC2)C1`, the IC50 result is “in the range around 2000 nM”.

`C[C@@H](NC(=O)c1cnc2c(Oc3ccc(C(F)(F)F)cc3)cccc2c1)c1cccc2ccsc12`: the IC50 result was “in the range around 550 nM”.

Take `CCN1CC([C@H](C)NC(=O)c2ccc3c(Oc4ccc(C(F)(F)F)cc4)cccc3c2)C1`: the IC50 entry was “in the range around 550 nM”.

For `CCN1CC([C@@H](C)NC(=O)c2ccc3c(Oc4ccc(C(F)(F)F)cc4)cccc3c2)C1`, the IC50 result is “in the range around 550 nM”.

Take `C[C@@H](NC(=O)c1ccc2c(Oc3ccc(C(F)(F)F)cc3)cccc2c1)C1CN(C)C1`: the IC50 entry was “in the range around 550 nM”.

Consider `C[C@@H](NC(=O)c1ccc2c(Oc3ccc(C(F)(F)F)cc3)cccc2c1)C1CN(CCO)C1`, for which the IC50 result is “in the range around 550 nM”.

As to `COc1cc(Oc2ccc(C(F)(F)F)cc2)c2ncc(C(=O)NC(CO)c3ccccn3)cc2c1` (stereo not given), the IC50 is below 100 nM.

As for `C[C@H](CCN)NC(=O)c1ccc2c(Oc3ccc(C(F)(F)F)cc3)cccc2c1`, the IC50 was below 100 nM.

As for `C[C@H](NC(=O)c1cc2cccc(Oc3ccc(C(F)(F)F)cc3)c2s1)c1ccccn1`, the IC50 was below 100 nM.

`C[C@H](CN)NC(=O)c1ccc2c(Oc3ccc(C(F)(F)F)cc3)cccc2c1`: the IC50 result is “in the range around 550 nM”.

In turn, `C[C@H](CO)NC(=O)c1cnc2c(Oc3ccc(C(F)(F)F)cc3)cc(F)c(F)c2c1` gave an IC50 below 100 nM.

In the case of `CC(=O)N1CC([C@H](C)NC(=O)c2ccc3c(Oc4ccc(C(F)(F)F)cc4)cccc3c2)C1`, the IC50 entry is “in the range around 550 nM”.

For the compound `C[C@H](NC(=O)c1ccc2c(Oc3ccc(C(F)(F)F)cc3)cccc2c1)c1cn(C)cn1`, the IC50 entry was “in the range around 550 nM”.

Regarding `C[C@H](NC(=O)c1ccc2c(Oc3ccc(C(F)(F)F)cc3)cccc2c1)C1(O)CNC1`, the IC50 entry is “in the range around 550 nM”.

For the compound `C[C@H](NC(=O)c1ccc2c(Oc3ccc(C(F)(F)F)cc3)cccc2c1)C1CNC1`, the IC50 was below 100 nM.

In the case of `C[C@H](CCO)NC(=O)c1ccc2c(Oc3ccc(C(F)(F)F)cc3)cccc2c1`, the IC50 was below 100 nM.

Regarding `C[C@H](NC(=O)c1ccc2c(Oc3ccc(C(F)(F)F)cc3)cccc2c1)C1CN(CCF)C1`, the IC50 result is “in the range around 2000 nM”.

In the case of `CC(C)NC(=O)c1ccc2c(Oc3ccc(C(F)(F)F)cc3)cncc2c1`, the IC50 is below 100 nM.

The compound `NS(=O)(=O)c1ccc2c(Oc3ccc(C(F)(F)F)cc3)cccc2c1` registered an IC50 below 100 nM.

As to `C[C@H](NC(=O)c1ccc2c(Oc3ccc(C(F)(F)F)cc3)cccc2c1)C1CN(CC(F)F)C1`, the IC50 result was “in the range around 2000 nM”.

Regarding `C[C@@H](NC(=O)c1ccc2c(Oc3ccc(C(F)(F)F)cc3)cccc2c1)C1CN(CC(F)F)C1`, the IC50 is below 100 nM.

`CC(C)N1CC([C@@H](C)NC(=O)c2ccc3c(Oc4ccc(C(F)(F)F)cc4)cccc3c2)C1`: the IC50 result was “in the range around 2000 nM”.

For the compound `C[C@H](NC(=O)c1ccc2c(Oc3ccc(C(F)(F)F)cc3)cccc2c1)C1CN(CCO)C1`, the IC50 result is “in the range around 550 nM”.

Take `O=C(N[C@H](CO)C1CNC1)c1ccc2c(Oc3ccc(C(F)(F)F)cc3)cccc2c1`: the IC50 result is “in the range around 550 nM”.

In the case of `C[C@H](NC(=O)c1ccc2c(Oc3ccc(C(F)(F)F)cc3)cccc2c1)C1CN(C)C1`, the IC50 result is “in the range around 2000 nM”.

As to `CC(C)N1CC([C@H](C)NC(=O)c2ccc3c(Oc4ccc(C(F)(F)F)cc4)cccc3c2)C1`, the IC50 result is “in the range around 550 nM”.

In the case of `C[C@@H](NC(=O)c1ccc2c(Oc3ccc(C(F)(F)F)cc3)cccc2c1)C1CN(CCCCO)C1`, the IC50 result is “in the range around 550 nM”.

Consider `CC#C[C@H](C)NC(=O)c1ccc2c(Oc3ccc(C(F)(F)F)cc3)cccc2c1`, for which the IC50 was below 100 nM.

Consider `C[C@@H](NC(=O)c1ccc2c(Oc3ccc(C(F)(F)F)cc3)cccc2c1)C1CN(CCF)C1`, for which the IC50 is below 100 nM.

`C[C@@H](NC(=O)c1ccc2c(Oc3ccc(C(F)(F)F)cc3)cccc2c1)c1cccc2cn[nH]c12` displayed an IC50 below 100 nM.

As for `CC(C)NC(=O)c1ccc2c(Oc3ccc(C(F)(F)F)cc3Cl)cccc2c1`, the IC50 was below 100 nM.

Regarding `COc1cc(Oc2ccc(C(F)(F)F)cc2)c2ncc(C(=O)NC(C)C)cc2c1`, the IC50 is below 100 nM.

(Values after ChEMBL document CHEMBL5729264, “Bicyclic compounds” (2022).)
